This is an account of results in patent US5216142A, “Anti-virals” (Efamol Holdings plc, priority 1989, dated 1993).

Values after ≈ are worked out from the molar mass of the structure shown. “Also recorded” adds a separate entry of the source. Where two headings read alike, the source gives them in different places. Bounds are passed on as bounds.

One data set has as its system HTLV-IIIB. In words: Anti-HIV activity assay, HTLV-IIIB (MT-4 cells, MTT method). In kind it is cell-based. To be noted: for Selectivity index (SI): CD50/ED50, HTLV-IIIB; for EC50: Human immunodeficiency virus 1, MT4, 120 h, MT-4 cells, five days, HTLV-IIIB, read-out: ED50 (50% effective dose). The protocol: (§1) Results in relation to HIV virus were obtained by the method of Pauwels et al, Journal of Virological Methods 20, 309 to 321 (1988), as follows:
(§2) MT-4 cells (2.5×10^4 /well) were infected with HIV (100 CCID50) and incubated in the presence of varying concentrations of the test compounds (added immediately after virus infection). After five days incubation at 37° C. in a CO2 incubator, the number of viable cells was assessed by the MTT (tetrazolium) method. Anti-viral activity and cytotoxicity of the compounds are expressed as ED50 (50% effective dose) and CD50 (50% cytotoxic dose), respectively. SI (selectivity index=CD50 /ED50.
(§3) These are given in Table 8 and Table 9 below in relation to HTLV-IIIB and LAV-2ROD viruses.

Data set [1] has as its system herpes simplex virus Type I (HSV I). In words: Inhibition of virus replication (plaque assay, BHK-21 cells). In kind it is cell-based, Type 1, Troisbel strain. As to conditions: for Viral titre (inhibition of replication): control 9.0 × 10^8; for Inhibition of viral replication (in words): up to 100 mg/l. The procedure:
1. Mono-layers of baby hamster kidney cells (BHK-21) are prepared in Petri dishes containing ETC medium (Eagle's minimal essential medium +10% tryptose phosphate broth +10% new born calf serum).
2. After incubation the medium is poured off to leave the layer of cells attached to the Petri dish. A solution containing virus, specifically herpes simplex virus Type I (HSV I) for example, in ETC medium is then added to the dish and incubated with intermittent rocking for one hour to allow the virus to adsorb to the cells of the mono-layer. Unadsorbed virus is then removed by pouring off the virus-containing medium and washing twice with new sterile medium. Then new medium is added to each Petri dish. At this stage various concentrations of drug can be added to the medium.
3. […] First the dishes are frozen to -70° C. and thawed to disrupt the mono-layer and break up the cells. Then the medium and the disrupted cells are transferred to bijou bottles and sonicated to break down the cells completely and to release all the virus particles the cells contain. The sonicated medium is then diluted with fresh sterile ETC medium to give concentrations of the original Petri dish fluid of 10^-2, 10^-4, 10^-6 and 10^-8.
4. The number of virus particles (plaque forming units) in the dilutions is then assayed. A standard number of BHK cells (usually 8×10^6) is added to 2 ml of the diluted solutions and incubated for one hour, with cautious, gentle shaking, and 8 ml of Eagle's minimal essential medium +2% new born calf serum + carboxymethyl cellulose is then added to the cell suspension. This medium has gelling properties which prevent spreading of the virus through the medium and which encourage the formation of discrete plaques in cell mono-layers. The medium from each dilution is then dispensed into Petri dishes and incubated for two to three days.
5. The number of plaques formed is then counted and the amount of active virus expressed as the number of plaque forming units (pfus) as follows. The medium is poured off and the cell mono-layer is fixed using 10% formol saline and stained with dilute carbol fuchsin. The number of plaques in each Petri dish is counted. Based on the dilutions, the number of plaque forming virus particles in the original solutions is calculated.
In the Table, the figures are the concentration of viral particles in pfu/ml present in the cells + medium at the end of the replication stage (3).

The test system of data set [2] is herpes simplex virus Type I. In words: Inactivation of virus (30 minutes incubation, plaque assay). As to conditions: for Virus titre (inactivation of virus): 30 minutes, control 5.4 × 10^4 (GLA-alcohol), 4.5 × 10^4 (GLA-AZT). Format: cell-based, Type 1, Troisbel strain. The protocol:
1. A virus solution containing 2×10^5 pfu/ml is prepared in phosphate buffered saline (Dulbecco's A).
2. The compound to be tested is made up in Dulbecco's medium A in a suitable range of dilutions.
3. Equal volumes of the virus and drug solution are mixed together. Control solutions without drug are also used.
4. The virus and drug are incubated for an appropriate period of time, in this example, thirty minutes.
5. The numbers of active viral particles in the solution are assayed as in items 4 and 5 under A.
The results are shown below (Table 6). In the Table, the figures are concentrations of viral particles present after incubation of the virus for 30 minutes with solutions of the drugs.

For the next data set, the system named is herpes simplex. In words: Topical application to herpetic lesion. Format: in vivo, human. As to conditions: ointment or cream 2% by weight, 1 to 5 mg/cm^2 three times daily for one week; after three days. The procedure:
Example (6) Ointment or cream for topical administration against herpes simplex, containing 2% by weight GLA-AZT. It may be applied to a human afflicted with a herpetic lesion at the afflicted sites at a rate of 1 to 5 mg/cm^2 three times daily for a period of one week.

For a further data set, the system named is LAV-2ROD. In words: Anti-HIV activity assay, LAV-2ROD (MT-4 cells, MTT method). Format: cell-based. As to conditions: for Selectivity index (SI): CD50/ED50, LAV-2ROD; for EC50: MT4, 120 h, MT-4 cells, five days, LAV-2ROD, read-out: ED50 (50% effective dose). The protocol: as §1, §2, §3
On the technique in general: Formazan colour is commonly taken as a measure of viable cells.

Another data set can be described thus: in vitro. In kind it is cell-based. As to conditions: human, mt-4 cells, CD50 (50% cytotoxic dose). The protocol:
as §1, §2

The test system of the next data set is MT-4 cells. In words: in vitro. In kind it is cell-based. To be noted: human, 120 h. The procedure: as §1, §2
In data set [3] the test system is herpes simplex virus Type I (HSV I). To be noted: cited from earlier work.
The subject of data set [4] is herpes simplex virus Type I. As to conditions: known, e.g. E. de Klerk et al 1980; cited from earlier work.
Another data set concerns viral polymerases. As to conditions: tested lacking the phosphate groups; cited from earlier work.
The conditions of data set [5]: cited from earlier work.
The subject of a further data set is adenosine deaminase. To be noted: human plasma; cited from earlier work.

The CC50 is the concentration at which the toxic effect on the cells reaches its halfway point.

For the compound `CCCCC/C=C\C/C=C\C/C=C\CCCCC(=O)OC[C@H]1O[C@@H](n2cc(C)c(=O)[nH]c2=O)C[C@@H]1N=[N+]=[N-]` [AK 1, GLA - 3'azido-3'-deoxythymidine], the “% in chloroform phase (partition co-efficients, water/chloroform)” value is over 99%. Further, in the data set with HTLV-IIIB, the “Selectivity index (SI)” value is listed as 7993 and the EC50 stood at 0.754 ng/mL (≈ 1.43 nM). The “Viral titre (inhibition of replication)” value in data set [1] (25 μg/ml (47.5 × 10^-6 molar)) was 1.02 × 10^8 pfu/ml. The “Viral titre (inhibition of replication)” value in data set [1] (50 μg/ml (95.0 × 10^-6 molar)) is listed as < 1.0 × 10^2 pfu/ml. In data set [1] (listed as AZT-GLA), the “Inhibition of herpes virus replication (in words)” value is on record as “to inhibit its replication”. The “Inhibition of herpes virus replication (in words)” value in data set [1] (listed as GLA-AZT) is recorded as “able to inhibit viral replication effectively; also recorded: gains the property of inhibiting herpes virus replication”. In addition, the “Inhibition of viral replication (in words)” value in data set [1] was “no inhibition”. In addition, in data set [2], the “Virucidal activity / inactivation of herpes virus (in words)” value (from here on “Virucidal activity / inactivation”) is reported as “virucidal”. In data set [2] (5 μg/ml), the “Virus titre (inactivation of virus)” value is given as 2.7 × 10^3. Further, the “Virus titre (inactivation of virus)” value in data set [2] (25 μg/ml) is on record as < 1.0 × 10^2. For the same compound, the log reduction at 1 µg/mL in data set [2] (Human alphaherpesvirus 1, 0.5 h, 1 mg/l, read-out: Inactivation of virus (log10 reduction in virus titre)) was 1. The log reduction at 5 µg/mL in data set [2] (Human alphaherpesvirus 1, 0.5 h, 5 mg/l, read-out: Inactivation of virus (log10 reduction in virus titre)) is 2. The “Virucidal activity / inactivation” value in data set [2] (listed as AZT-GLA) is on record as “able both to inactivate the herpes virus”. Also, in [2] (listed as GLA-AZT), the “Virucidal activity / inactivation” value is reported as “more effective”. The “Reduction in the size of the lesion” value with herpes simplex is on record as “Reduction in the size of the lesion is noted”. In the data set with LAV-2ROD, the “Selectivity index (SI)” value is listed as 9770 and the EC50 is 0.858 ng/mL (≈ 1.63 nM). In “in vitro”, this compound came in with a CC50 at 120 h of 6030 ng/mL (≈ 11400 nM). Further, the “CD50 (50% cytotoxic dose)” value in the data set with MT-4 cells stood at 8.3825 µg/mL.

On to `Cc1cn([C@H]2C[C@H](N=[N+]=[N-])[C@@H](CO)O2)c(=O)[nH]c1=O` [AK 7, zidovudine, reference compound], for which the “% in chloroform phase (partition co-efficients, water/chloroform)” value was found to be 15%. For the same compound, in the data set with HTLV-IIIB, the “Selectivity index (SI)” value worked out at 4131 and the EC50 was found to be 0.372 ng/mL (≈ 1.39 nM). Moreover, in data set [1] (listed as AZT), the “Inhibition of herpes virus replication (in words)” value was “no effect; also recorded: not found”. Moreover, the “Inhibition of viral replication (in words)” value in data set [1] is listed as “No inhibition”. For the same compound, the “Activity against herpes viruses (in words)” value in data set [3] (herpes zoster and herpes simplex) is “inactive”. Also, the “Effect on replication of herpes simplex virus (in words)” value in data set [3] (known, e.g. E. de Klerk et al 1980) is reported as “no effect”. For the same compound, the “Effect on inactivation of herpes simplex virus (in words)” value in data set [4] is given as “no effect”. Besides, the “Activity against viral polymerases (in words)” value in the data set on viral polymerases was “inactive”. In [2], the “Virucidal activity / inactivation” value is listed as “no effect”. The “Inactivation of virus (in words)” value in [2] (up to 50 mg/l) was “no inactivation”. For the same compound, the “Excreted unchanged into the urine” value in data set [5] (in vivo) is “Fifteen to twenty”. The “Metabolised by hepatic glucuronidation” value in data set [5] (to 3'-azido-2'-3'-dideoxy-5'-glucuronyl thymidine) is “seventy five”. Further, in the data set on LAV-2ROD, the “Selectivity index (SI)” value is 2928 and the EC50 came to 0.53 ng/mL (≈ 1.98 nM). Moreover, in “in vitro”, the CC50 at 120 h was determined as 1540 ng/mL (≈ 5750 nM). The “CD50 (50% cytotoxic dose)” value in the data set on MT-4 cells is 1.5633 µg/mL.

`Nc1ncnc2c1ncn2[C@H]1CC[C@@H](CO)O1` [ddA]: the “Conversion of ddA to ddI” value in the data set on adenosine deaminase is “within minutes”.
